Entries after “also recorded” stand apart in the source; their conditions may differ.

Data on six compounds can be found in patent US20180371256A1, “BENZOCOUMARIN-BASED TWO-PHOTON ABSORBING FLUORESCENT DYE” (POSTECH ACADEMY-INDUSTRY FOUNDATION, priority 2017, published 2018).

Data set [1] in a line: UV/Vis absorbance spectra of benzocoumarin-based fluorescent dyes (wavelength of maximum absorbance). It is filed as physicochemical. Conditions: 10 μM dye in HEPES buffer, PBS buffer, dioxane, ethanol, acetonitrile, dichloromethane, dimethylsulfoxide or toluene (1% DMSO); compared with Compounds 1c and 1g to 1l (FIG. 1). An excerpt: The inventors confirmed absorption characteristics of representative compounds among Compounds 1g to 1k, which are two-photon absorbing near-infrared fluorescent dyes, and Compounds 1a to 1f and 1l to 4g, which are two-photon absorbing fluorescent dyes, of the present invention, and the results are shown in FIG. 1.
Specifically, to confirm the characteristics of UV/Vis absorbance spectra of benzocoumarin-based near-infrared fluorescent dyes and derivatives thereof, the inventors measured UV/Vis absorbance spectra (measured using a HP8453 UV/Vis absorbance spectrophotometer) by charging a quartz cell with a 1-cm path length with 4-(2-hydroxyethyl)-1-piperazineethanesulfonic acid (HEPES) buffer, phosphate-buffered saline (PBS) buffer, dioxane, ethanol, acetonitrile, dichloromethane, dimethylsulfoxide, or a toluene solution (containing 1% DMSO), which contains 10 μM each of Compounds 1a to 4g, and the wavelength of maximum absorbance is shown in FIG. 1.

Data set [2] can be described thus: Fluorescence spectra of benzocoumarin-based fluorescent dyes. It is filed as physicochemical. Conditions: 10 μM dye in HEPES buffer, dioxane, ethanol, acetonitrile, dichloromethane, dimethylsulfoxide or toluene (1% DMSO); compared with Compounds 1c and 1g to 1l (FIG. 2). The source says:
The inventors confirmed absorption characteristics of representative compounds among Compounds 1g to 1k, which are two-photon absorbing near-infrared fluorescent dyes, and Compounds 1a to 1f and 1l to 4g, which are two-photon absorbing fluorescent dyes, of the present invention, and the results are shown in FIG. 2.
Specifically, to confirm the characteristics of fluorescent spectra of two-photon absorbing near-infrared fluorescent dyes, the inventors measured fluorescence spectra (measured using a photon technical international fluorescence system) by charging a quartz cell with a 1-cm path length with 4-(2-hydroxyethyl)-1-piperazineethanesulfonic acid (HEPES) buffer, […], dioxane, ethanol, acetonitrile, dichloromethane, dimethylsulfoxide, a toluene solution (containing 1% DMSO), which contains 10 μM each of Compounds 1a to 4g, and the wavelength of maximum absorbance is shown in FIG. 2.

Data set [3] concerns mouse kidney tissue. Briefly: Two-photon fluorescence microscopy imaging of mouse kidney tissue slices treated with dye. The settings on record: 10 μM. The arrangement: species or system mouse (Balb/C). The protocol: The inventors observed fluorescent changes by two-photon microscopy after mouse tissue was treated with Compound 1g of the present invention, and the result is shown in FIG. 3.
Specifically, to observe a two-photon microscopy image of mouse tissue treated with Compound 1g, kidney tissue of a Balb/C type mouse (6 weeks old) was used, and an experiment was carried out under a light-protected condition (dark room). The mouse kidney tissue was dissected and washed with a PBS buffer solution, and then each organ was frozen over dry-ice for 5 minutes. The frozen organs were crushed with a hammer, and then a tissue slice sample was prepared to a thickness of 16 μm using a cutter (Cryostat machine, Leica, CM3000 model). […] The tissue slice sample was put on a specimen block (Paul Marienfeld GMbH & Co.), and the specimen block was immersed in 4% paraformaldehyde for 10 minutes and washed with a PBS buffer solution, and then the tissue was fixed again using a mount solution (Gel Mount, BIOMEDA). The prepared tissue slice sample was immersed in a PBS buffer solution containing Compound 1g and acedan or IminoPOS at a concentration of 10 μM for 10 minutes, washed with a PBS buffer solution three times, and then fixed with 4% paraformaldehyde, followed by observation of fluorescence. […]

Consider `C=CCNc1ccc2cc3cc(-c4ccncc4)c(=O)oc3cc2c1` [Compound 1e, 8-(allylamino)-3-(pyridine-4-yl)-2H-benzo[g]chromene-2-one], for which the “wavelengths of maximum absorbance” value in data set [1] was “did not have a significant difference”. Further, in data set [2], the “wavelengths of maximum absorbance (fluorescence spectra, FIG. 2)” value (from here on “wavelengths … (fluorescence spectra, FIG. 2)”) is “did not have a significant difference”.

With `O=c1oc2cc3cc(N4CCCC4)ccc3cc2cc1-c1ccncc1` [Compound 1a, 3-(pyridine-4-yl)-8-(pyrrolidine-1-yl)-2H-benzo[g]chromene-2-one], the “wavelengths of maximum absorbance” value in data set [1] was “did not have a significant difference”. Besides, in data set [2], the “wavelengths … (fluorescence spectra, FIG. 2)” value is recorded as “did not have a significant difference”.

On to `C[n+]1ccc(-c2cc3cc4ccc(N5CCCC5)cc4cc3oc2=O)cc1.[OH-]` [Compound 1g, 1-methyl-4-(2-oxo-8-(pyrrolidine-1-yl)-2H-benzo[g]chromene-3-yl)pyridinium trifluoromethanesulfonate], for which the “quality of two-photon fluorescence image” value in data set [3] (depths 25, 125, 175 μm, compared to acedan or IminoPOS (conventional two-photon dyes), FIG. 3c) was “superior fluorescence image; also recorded: high-definition and high-contrast image”. In data set [3] (two-photon excitation 900 nm, surface layer to middle depth (50 to 150 μm), compared to acedan (800 nm) and IminoPOS (850 nm), FIG. 3b), the “signal/noise (S/N) ratio of two-photon tissue image” value is on record as “increased”.

As to `CN(C)c1ccc2cc3cc(-c4ccncc4)c(=O)oc3cc2c1` [Compound 1b, 8-(dimethylamino)-3-(pyridine-4-yl)-2H-benzo[g]chromene-2-one], the “wavelengths of maximum absorbance” value in data set [1] is given as “did not have a significant difference”. In addition, in data set [2], the “wavelengths … (fluorescence spectra, FIG. 2)” value is recorded as “did not have a significant difference”.

Take `Nc1ccc2cc3cc(-c4ccncc4)c(=O)oc3cc2c1` [Compound 1f, 8-amino-3-(pyridine-4-yl)-2H-benzo[g]chromene-2-one]: the “wavelengths of maximum absorbance” value in data set [1] is given as “did not have a significant difference”. Also, the “wavelengths … (fluorescence spectra, FIG. 2)” value in data set [2] is “did not have a significant difference”.

In the case of `CNc1ccc2cc3cc(-c4ccncc4)c(=O)oc3cc2c1` [Compound 1d, 8-(methylamino)-3-(pyridine-4-yl)-2H-benzo[g]chromene-2-one], the “wavelengths of maximum absorbance” value in data set [1] is recorded as “did not have a significant difference”. In data set [2], the “wavelengths … (fluorescence spectra, FIG. 2)” value was “did not have a significant difference”.
